Results: patent US20230002368A1, “USE OF COMPOUNDS FOR THE PREVENTION AND/OR TREATMENT OF ANKYLOSING SPONDYLITIS, AND CORRESPONDING COMPOSITIONS” (NUVAMID SA, priority 2019, published 2023)

Tests used:
[1] = tested on: TgA86 mice as a model for ankylosing spondylitis; assay: TgA86 mouse model of ankylosing spondylitis: joint score and tail score; assay type: in vivo; settings: male TgA86 mice, NMN 185 mg/kg intraperitoneally
Protocol: (§1) The efficacy of the use of NMN (compound IE) according to the invention was evaluated in 3-week-old TgA86 mice as a model for ankylosing spondylitis. TgA86 mice develop peripheral and axial AS with an incidence of 100%. In these mice, the peripheral form is manifested by joint welling and paw deformation, whilst the axial form is clinically characterised by curved tails and pelvic ankylosis.
(§2) In brief, male TgA86 mice were divided into two groups of 10 mice each: (i) a control group, in which the mice were treated with vehicle, i.e. a 0.9% NaCl solution (10 mL/kg), marked ‘Vehicle’; […] a group of mice treated with NMN (185 mg/kg), marked ‘NMN’. The solutions were injected intraperitoneally.
The mice were treated for 10 weeks under the conditions set forth supra. The joint score, tail score, and weight of the mice were measured every week. The joint score was determined in accordance with table 3 infra:
The tail score is an indicator that allows for an evaluation of the axial form of AS and pelvic ankylosis (see https://www.biomedcode.com/wp-content/uploads/2019/07/TgA86-white-paper.pdf). The tail score was determined in accordance with table 4 infra: […]

[2] = Weight and tolerance of treated TgA86 mice; assay type: in vivo; settings: male TgA86 mice, NMN 185 mg/kg intraperitoneally, 10 weeks
Protocol: as §1, §2
The mice were treated for 10 weeks under the conditions set forth supra. The joint score, tail score, and weight of the mice were measured every week. The joint score was determined in accordance with table 3 infra: […]

## NC(=O)c1ccc[n+]([C@@H]2O[C@H](COP(=O)([O-])O)[C@@H](O)[C@H]2O)c1 [NMN, nicotinamide mononucleotide]
[1]; 10 weeks, vs vehicle control group (FIG. 2)
  average joint score (peripheral AS): reduction in the joint score of the mice compared to the control group
[1]; 10 weeks, vs vehicle control group (FIG. 3)
  average tail score (axial AS, pelvic ankylosis): reduces the tail score in the mice treated compared to the control group
[1]; T-test vs vehicle (FIG. 2)
  significance of the joint score reduction over time: particularly significant starting in the 5th week of treatment
[1]; T-test vs vehicle (FIG. 3)
  significance of the tail score reduction over time: significant starting in the second week of treatment
[2]
  tolerance / toxicity in the animals: well tolerated by the mice and does not cause any distress or toxicity in the animals
[2]; measured every week, vs vehicle (FIG. 1)
  development of the average weight of mice: follows a similar course of development to that of the control group
